According to paper PMC9256669, “Monomethyl auristatin antibody and peptide drug conjugates for trimodal cancer chemo-radio-immunotherapy” (Nature Communications, 2022):
Where “and” joins values, the source holds several entries; their conditions need not be identical. Equal values may be shown once. Entries after “also recorded” stand apart in the source; their conditions may differ. Non-standard residues stand in square brackets, D forms with d. Residues, ends and D or L forms follow the SMILES beside them. *: point of attachment. Dolaproine = CO[C@@H]([C@@H]1CCCN1)[C@@H](C)C(=O)O; Dil = CC[C@H](C)[C@H](NC)[C@@H](CC(=O)O)OC; X1 = C[C@@H](N*)[C@@H](O)c1ccccc1; NMeV = CN[C@H](C(=O)O)C(C)C

Legend:
MOC1 = experiment: Cytotoxicity, Alamar Blue assay; type: cell-based, murine; details: for sensitivity in cell culture, Alamar Blue assay: MOC1 and MOC2 cells, cell viability at 72 hr of drug exposure, CDX3379 at nM dosing
Experimental: Murine colorectal (MC38 (ENH204-FP)) cancer cell lines were obtained from Kerafast. Murine head and neck MOC1 and MOC2 were generously provided by Dr. R. Uppaluri. CAL27 PIK3CA H1047R expressing cells and 4MOSC1 cells were generated in Dr. Gutkind’s laboratory and previously characterized[42],[55]. […] MC38 cells were cultured in DMEM supplemented with 10% FBS, 1 mM sodium pyruvate (Gibco), 1% non-essential amino acids (Gibco), and 10 mM HEPES (Gibco). MOC1 and MOC2 cells were cultured in IMDM (Lonza)/F-12K nutrient mixture at a 2:1 mixture with 5% FBS, 5 ng/ml EGF (EMD Millipore), 400 ng/ml hydrocortisone (Sigma), and […] insulin (Sigma). On receipt, each cell line was expanded, cryopreserved as low passage stocks, and routinely tested for mycoplasma. Cisplatin (Enzo Biosciences), paclitaxel (Sigma), and MMAE (Concortis) were reconstituted in DMSO. […] Clinical grade cetuximab (Erbitux, Lilly Medical) was obtained from UCSD Moores Cancer Center Pharmacy.
Cells were plated in 96-well plates and exposed to a drug concentration range for 72 h. Alamar Blue was added to the cells and allowed to incubate for 2–4 h at 37 °C. Plates were analyzed using a plate reader with fluorescence measured at 560 nm. Fractional survival was normalized to untreated control cell fluorescent values. Drug IC50 was calculated using Prism software (GraphPad, La Jolla, CA). Cell viability, cytotoxicity and apoptosis were also measured by ApoTox-Glo Triplex Assay (Promega).
measured by Alamar Blue assay. For Alamar Blue assay cytotoxicity, we measured cell viability at 72 hr of […]

B16 tumors [1] = experiment: Subcutaneous tumor therapy with CD8 T cell depletion; type: in vivo, C57BL/6 mice; details: MMAE conjugate + IR, anti-CD8 antibody 10 mg/kg vs control
Experimental: (§1) MOC1, B16, LL/2, and MC38 tumor cells were injected subcutaneously into the hindlimbs of 6-week-old female C57BL/6 albino mice in 100 µl of 1:1 Matrigel (BD) and PBS solution. Fractionated IR was delivered focally to the tumor-bearing hindlimbs (3 Gy to MC38 tumors and 5 Gy to LL/2 and B16 tumors) as indicated in figure legends using a PXI X-RAD 225 XL irradiator at maximal dose rate of 3 Gy/min with a beam-conditioning aluminum filter (Precision X-ray Irradiation). For RAG1 KO studies, 6-week-old female Rag1^tm1Mom mice were injected subcutaneously with tumor cells in their hindlimbs (Jackson Labs). For CD8 depletion studies, mice were i.p. injected with anti-CD8 (BioXCell #BE0117) at 10 mg/kg on days −6, −5 and −4 tumor cell implant and then weekly starting on day after tumor cells were injected or control antibody. […] Tumor volumes were measured and calculated using the formula as ½ * length * width^2. Mice were sacrificed when tumor volume reached >1500 mm^3, maximal tumor volume approved on our protocol for subcutaneous tumors.

[2] = Tumor drug measurement (MMAE by LC-MS/MS) after ACPP-MMAE; type: in vivo, mouse; details: LL/2 and B16 tumors, 10 nmoles ACPP-MMAE i.v.
Experimental: For CDX3379-MMAE drug measurements, 6-week-old female NOD SCID (University of California San Diego Animal Care Program) were injected orthotopically into the tongue with 150,000 CAL27 PIK3CA H1047R expressing cells in 20 µl of DMEM. After 10 days, mice were intravenously (i.v.) injected through the tail vein with 2.5 nmole of CDX3379-MMAE in 50 µl of PBS. […] Tumors were excised on days indicated in figure legends, weighed, and homogenized in 10 v/w of 2% acetic acid in 1:1 acetonitrile:water with a point sonicator (Fisher Scientific) using an amplitude range of 5–15% for 20 s on ice. Homogenates were centrifuged ([…], 10 min), supernatants collected for drug concentration measurements using LC–MS/MS. Drug concentration was determined by LC–MS/MS with Luna-2 C18 column and Agilent Trap XCT mass spectrometer. For MMAE tissue concentrations, integrated ion currents for m/z 682.4, 496.4 and m/z 686.4, 506.4 extracted from fragmented m/z 740.4 and 718.4, respectively, were combined. The total ion current was fit to a standard curve generated for each drug to quantitate tissue drug concentration.

B16 tumors [3] = type: in vivo, C57BL/6 mice
Experimental: At harvest, tumors were isolated, minced, and re-suspended in FBS-free DMEM media supplemented with components of MACs tumor dissociation kit. Tissues were incubated for 15 min at 37 °C and mechanically digested using the gentle MACs Octo dissociator. Tissue suspensions were washed with fresh media and passed through a 100-µm strainer. Samples were split in half for immediate staining or stimulated with the Biolegend Cell Activation Cocktail (with Brefeldin A) for 3 h. Samples were washed with PBS and immediately processed for live/dead cell discrimination using BD LIVE/DEAD™ Fixable Blue Dead Cell Stain Kit. Cells were washed and stained for surface markers for 30 min at 4 °C. Intracellular staining was performed using the eBioscience FOXP3/Transcription Factor Buffer Set from Invitrogen and stained with intracellular antibodies. […] All antibodies were validated by the supplier. All flow cytometry data acquisition was done using BD LSRFortessa and analyzed using FlowJo software. Immune cells were identified by the following characteristics: cytotoxic T cells (CD45+Thy1.2+CD8+), helper T cells (CD45+Thy1.2+CD4+), NK cells (CD45+Thy1.2−NK1.1+).
FSC-A FSC-H SCC-H Live Dead-Blue
Representative flow cytometry plots to gate immune cells quantitated in Fig. 4a, b, 4d &
Supplementary Fig. 10b, c. b) Quantification of tumor immune cell identified by flow cytometry on
Tumors harvested on day 19 and immune cells characterized by flow cytometry. c) Tumor
Mice implanted with tumor
Source data are provided in Source Data file.

B16 tumors [4] = experiment: NanoString nCounter PanCancer Mouse Immune Profiling of tumors; type: in vivo, C57BL/6 mice; details: ACPP-MMAE alone vs vehicle
Experimental: RNA was isolated from cells or tumor tissues and comprehensive immune profiling was analyzed using the NanoString PanCancer IO 360 Panel and NanoString nCounter PanCancer Mouse Immune Profiling gene expression platforms. Gene set analysis with calculated global significance scores and directed significance scores were calculated for treated cells. The Advanced Analysis module of the nSolver software was used to analyze genes associated with listed immune cells in tumors and given a Z-score (n = 3 mice per group). Expression levels of GZMB were analyzed using real-time quantitative PCR. Reverse transcription was performed with the iScript cDNA synthesis kit (Biorad), using aliquots of total RNA extracted with RNeasy Plus Mini Kit (Qiagen). Gene-specific primers were GZMB-F […] and GZMB-R […]. Real-time PCR reactions were performed using the CFX Connect Real-Time PCR System (Biorad) and the amplifications were done using the iTaq Universal SYBR Green Supermix (Biorad). qPCR data were analyzed using the Bio-Rad CFX Maestro software.
Supplementary Data 1: Complete NanoString expression data of Figure 1b. Untreated control (n=2) and 5 nM MMAE treated (n=3) B16 cells were harvested at 72 hrs. RNA was collected and analyzed using NanoString PanCancer IO 360 Panel. […]
were harvested. RNA was collected and analyzed using NanoString nCounter PanCancer Mouse Immune Profiling panel. […]

B16 tumors [5] = experiment: Subcutaneous tumor therapy, CDX3379-MMAE or CDX3379-MMAF with IR, mouse survival; type: in vivo, C57BL/6 mice
Experimental: as §1

Row | Compound | IC50 (MOC1; MOC1, 72 h drug exposure, Alamar Blue, one value per biological replicate, read-out: IC50 values) | sensitivity in cell culture, Alamar Blue assay (MOC1) | effect of CD8 T cell depletion on tumor control (B16 tumors [1]) | release of conjugated drug warhead in tumors [2] | Flow cytometry, CD4+ (B16 tumors [3]; mouse, in vivo) | Flow cytometry, CD45+ (B16 tumors [3]; mouse, in vivo) | Flow cytometry, CD45 negative (B16 tumors [3]; mouse, in vivo) | Flow cytometry, NK cells (B16 tumors [3]; mouse, in vivo) | tumor infiltration of immune cell types (NanoString) (B16 tumors [4]) | tumor control and survival, + IR (B16 tumors [5]; B16, 2.5 nmoles ADC x 2 doses + IR 5 Gy x 3) | Mouse survival, status (B16 tumors [5]; with IR, individual mice, status at the day, Figure 3h) | tumor CD8 T cell infiltration, with IR (B16 tumors [3]; B16 tumors, flow cytometry, drug + IR) | Flow cytometry (Figure 4b) (B16 tumors [3]; without IR, individual tumors)
1 | CC[C@H](C)[C@@H]([C@@H](CC(=O)N1CCC[C@H]1[C@H](OC)[C@@H](C)C(=O)N[C@H](C)[C@@H](O)c1ccccc1)OC)N(C)C(=O)[C@@H](NC(=O)[C@@H](NC)C(C)C)C(C)C [MMAE, monomethyl auristatin E] (H-[NMeV]V[Dil][Dolaproine]-X1) | 7.93 nM and 8.71 nM and 8.36 nM and 9.59 nM | sensitive |  |  |  |  |  |  |  |  |  |  | 
2 | cyclo(RGD)fc-MC-HN-peg8-e9-oPLGC(Me)AG-r9-c-(MC-VC-PABC-MMAE)-CONH2 [ACPP-MMAE] |  |  | abrogated durable tumor control | efficiently released its conjugated drug warhead equally in LL/2 and B16 tumors | 0.17 and 0.11 | 9.46 and 7.71 | 89.90 and 91.80 | 0.17 and 0.11 | minimal effects |  |  |  | 
3 | CDX3379-MMAE: anti-HER3 antibody CDX3379 with 4 MMAE per antibody via MC-VC-PABC linker, labeled with Cy5 |  | sensitive | significantly larger |  |  |  |  |  |  | prolonged tumor control and survival; also recorded: superior to CDX3379-MMAF | 1 and 0 | significantly increased CD8 tumor cell infiltration | 3.89 and 16.51 and 9.62
